These results are taken from patent publication US12240812B2, “Compound for inhibiting PGE2/EP4 signaling transduction inhibiting, preparation method therefor, and medical uses thereof” (Keythera (Suzhou) Pharmaceuticals Co. Ltd., priority 2019, dated 2025).

Series [1] is described as follows: Clearance assay in liver cells. In kind it is in vitro ADME. Conditions: cryopreserved mouse liver cells (hepatocytes); mouse (ICR/CD-1, male) cryopreserved liver cells, 0-120 min. The procedure: • Liver cell type: mouse • Product catalog: M00505 • Species: ICR/CD-1 • Sex: male • Source: BioreoclmationIVT Procedures: • 1. Preparation of working solution • a. 10 mM stock solutions of test compound and positive control were prepared in an appropriate solvent (DMSO). • b. 198 μL of 50% acetonitrile/50% water and 2 μL of 10 mM solution were mixed in a separate conical tube to obtain 100 μM test compound and positive control. • 2. Preparation of liver cells • a. The incubation medium and liver cell thawing medium were placed in a 37° C. water bath, and heated for at least 15 minutes before use. • b. A vial of cryopreserved liver cells was transferred from the storage, ensuring that the vial was kept at a low temperature until the thawing process was conducted. The cells were thawed by placing the vial in a 37° C. water bath and gently shaking the vial for 2 minutes. After completion of the thawing, the vial was sprayed with 70% ethanol and transferred to a biological safety cabinet. • c. The liver cells were transferred to a 50 mL conical tube containing the thawing medium by a large-bore pipette tip. The 50 mL conical tube was placed in a centrifuge and centrifuged at 100 g for 10 minutes. After completion of the centrifugation, the thawing medium was sucked out, and the liver cells were resuspended in enough medium to produce 1.5×10^6 cells/mL. • 3. Procedures of stability assay • a. 198 μL of liver cells were pipetted into each well of a 96-well uncoated plate. The plate was placed in an incubator to warm up the liver cells for 10 minutes. • b. 2 μL of 100 μM test compound or positive control was pipetted into each well of the 96-well uncoated plate to start the reaction. The plate was placed into the incubator at the set time point. • c. The contents of the wells were transferred in 25 μL of aliquots at the time points of 0, 15, 30, 60, 90 and 120 minutes. The aliquot was mixed with 6 volumes (150 μL) of acetonitrile containing internal standard IS (100 nM alprazolam, 200 nM caffeine, and 100 nM tolbutamide) to stop the reaction. The sample was vortex-mixed for 5 minutes, and centrifuged at 3220 g for 45 minutes. An aliquot of 100 μL of supernatant was diluted with 100 μL of ultrapure water, and the mixture was used for LC/MS/MS analysis. All incubations were performed in duplicate. • d. Data analysis
All calculations were performed using Microsoft Excel. The peak area was determined by the extracted ion chromatogram. The in vitro half-life (t½) of the parent compound was determined by the regression analysis of the compound disappearance percentage versus time curve.
The in vitro half-life (t½) was determined by the slope value k: t½=0.693/k
The in vitro t½ (in minutes) was converted to in vitro intrinsic clearance (CLint, in μL/min/0.5×10^6 cells) by using the following equation (average of repeated determinations): […]

Series [2] deals with EMT-6 breast tumor. The series is described as follows: Compound 6 and anti-PD-1 antibody alone or in combination on EMT-6 breast tumor in mouse. In kind it is in vivo. Here is the method: (§1) Efficacy study on allograft tumor: each 6-week-old female BALB/c mouse was subcutaneously inoculated with 5×10^5 EMT-6 cancer cells. When the tumor reached about 60 to 80 mm^3, the tumor-bearing mice were randomly grouped to the vehicle group or treatment group. When administered alone or in combination, compound 6 was administered orally (p.o.) in a 0.5% MC suspension at a dose of 30 mg/kg, once a day. When administered alone or in combination, anti-PD-1 antibody (Invivomab anti-mouse PD-1 (CD279), Abcam) was administered intraperitoneally at a dose of 20 mg/kg on the first administration, and at a dose of 10 mg/kg on the following administrations once every 5 days. The mice in the vehicle group and PD-1 antibody-administered alone group were orally administered with distilled water every day, and the administration time was the same as that of the compound 6 group. The tumor volume and body weight were recorded 2 to 3 times a week.

For series [3], the system named is CT-26 colorectal tumor. The series is described as follows: Inhibitory effect of compound 6 on CT-26 colorectal tumor in mouse. The format is in vivo. The procedure:
Efficacy study on allograft tumor: each 6-week-old female BALB/c mouse was subcutaneously inoculated with 1×10^6 CT26 cancer cells (National Experimental Cell Resource Sharing Service Platform, Resource Number 3111CCCC). When the tumor reached about 60 to 80 mm^3, the tumor-bearing mice were randomly grouped to the vehicle group or treatment group. Compound 6 was administered orally (p.o.) in a 0.5% MC suspension at a dose of 10, 30 or 150 mg/kg, once a day. The mice in the vehicle group were orally administered with distilled water every day, and the administration time was the same as that of the compound 6 group. The tumor volume and body weight were recorded 2 to 3 times a week.

In series [4] the test system is CT-26 colorectal tumor. Put plainly: Compound 6 and anti-PD-1 antibody alone or in combination on CT-26 colorectal tumor in mouse. The format is in vivo. Here is the method:
as §1, with “1×10^6 CT26” for “5×10^5 EMT-6”, “30 or 150” for “30”, “5 mg/kg,” for “20 mg/kg on the first administration, and at a dose of 10 mg/kg on the following administrations”, “4 days, for a total of 3 times (Q4D×3).” for “5 days.”

Series [5] concerns PGE2/EP4 signal transduction in MCF7 cells. Put plainly: Determination of MCF7 cAMP (PGE2-stimulated, HTRF). The format is cell-based. Conditions: Homo sapiens; MCF7 cells, 10 nM PGE2 stimulation, cAMP HTRF; read-out: MCF7 cAMP IC50. The procedure: • a) MCF7 cells (ATCC, 6000 cells/well/40 μl) were inoculated into a 384-well cell culture plate containing a medium (DMEM containing 10% FBS and 1×PS), and incubated overnight at 37° C. and 5% CO2. • b) The medium was removed, 40 μl/well of serum-free medium was added, and the cells were incubated at 37° C. and 5% CO2 for 5 hours. • c) The medium was replaced with 18 μL/well of HBSS buffer (Hepes 20 mM, 0.1% BSA, 500 μM IBMX). • d) The compound in DMSO was diluted (1/5 dilution, 9+0 dose). • e) 2 μL of the compound in d) was added to 98 μL of HBSS buffer. • f) 1 μL/well of the diluted compound in e) was added to the cells, with a final starting concentration of 1 μM, and the cells were incubated at 37° C. for 1 hour. • g) The cells were stimulated with 1 μL/well of PGE2 (10 mM DMSO stock solution) (final concentration: 10 nM, and DMSO final concentration: 0.2%), and incubated at 37° C. for 30 minutes. • h) After the incubation, 10 μL/well of cAMP-d2 and 10 μL/well of anti-cAMP were added, RT 1 h. • i) HTRF signals (665 nm/615 nm) were read on Envision. Data Analysis: • High control: 1 μM E7046 • Low control: DMSO • Background: 30 μL/well of lysis buffer+10 μL/well of anti-cAMP • Analytical data: original date—background Inhibition %: 100−100×(high control−analytical data)/(high control−low control)
(In general: In TR-FRET formats the signal depends on donor and acceptor labels being close together.)

A word on the hepatocyte CLint: it is a measure of how fast metabolising enzymes remove a compound, apart from limits set by blood flow. In general, IC50 refers to the concentration at which inhibition is half-maximal. `O=C(NC1(C23CC(C(=O)O)(C2)C3)CC1)c1cccc2ccn(Cc3cc4ccccc4o3)c12` [Compound 6, 3-(1-(1-(Benzofuran-2-ylmethyl)-1H-indole-7-carboxamido)cyclopropyl)bicyclo[1.1.1]pentane-1-carboxylic acid]: in series [1], the hepatocyte CLint at 1 µM turned out to be 2.9 µL/min/1e6 cells. For the same compound, the “effect on the body weight of mouse” value in series [2] (EMT-6 model, compound 6 alone or in combination with anti-PD-1 antibody, FIG. 6) is “no significant effect”; in series [3] (CT-26 colorectal cancer model, FIG. 2), “no significant effect”; in series [4] (CT-26 model, compound 6 alone or in combination with anti-PD-1 antibody, FIG. 4), “no significant effect”. Moreover, in series [2] (compound 6 30 mg/kg p.o. once a day, alone or in combination with anti-PD-1 antibody (20 mg/kg first, then 10 mg/kg i.p. every 5 days), FIG. 5), the “effect on the EMT-6 breast tumor in mouse” value is listed as “good inhibitory effect”. Moreover, in series [3] (BALB/c mice, CT26 allograft, administered alone, different doses (compound 6: 10, 30 or 150 mg/kg p.o. once a day), FIG. 1), the “effect on the growth of CT-26 tumor” value is “significant inhibitory effect”. The “effect on CT-26 tumor growth compared with E7046” value in series [3] (BALB/c mice, CT26 allograft, at the same dose, FIG. 1) is given as “significantly better than E7046”. Moreover, the “effect on the growth of CT-26 tumor in mouse” value in series [4] (compound 6 30 or 150 mg/kg p.o. once a day, alone or in combination with anti-PD-1 antibody 5 mg/kg i.p. Q4Dx3, FIG. 3) is “good inhibitory effect”. Also, the IC50 in series [5] turned out to be 1.1 nM.
